Consider ten compounds from ChEMBL document CHEMBL1201862, “PubChem BioAssay data set” (2004).

Common to all, as to experiment: growth of human tumour cells (NCI), 48 h
Assay [1] concerns 786-0.
Assay [2] has as its system A549.
The subject of assay [3] is BT-549.
In assay [4] the test system is COLO 205.
Assay [5] has as its system EKVX.
Assay [6] relates to HOP-92.
Assay [7] relates to KM12.
Assay [8] has as its system MOLT-4.
The test system of assay [9] is NCI-H522.
For assay [10], the system named is NCI/ADR-RES.
Assay [11] concerns OVCAR-4.
The subject of assay [12] is OVCAR-5.
Assay [13] deals with RPMI-8226.
The test system of assay [14] is RXF 393.
The subject of assay [15] is SF-268.
The test system of assay [16] is SK-MEL-5.
The subject of assay [17] is SK-OV-3.
For assay [18], the system named is SN12C.
Assay [19] concerns SR.
Assay [20] concerns TK-10.

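Protocol summary: plate cells (96-well), add compound at 5 concentrations, incubate 48 h, interpolate endpoints linearly. At the GI50, growth is halved.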 Activity calls are given as the source filed them. Rule as the data show it: active = GI50 up to about 1.1 µM and inactive = higher. Bounds are passed on as bounds.

Take `Cc1cn(S(=O)(=O)c2ccccc2)c2c(OCc3ccccc3)cc([N+](=O)[O-])cc12`: the GI50 in assay [1] was 27.1 µM (inactive); in assay [2], 41.5 µM (inactive); in [3], > 100 µM (inactive); in assay [4] it was > 100 µM (inactive); in [5], 35.7 µM (inactive); in [6] it was 74 µM (inactive). The GI50 in assay [7] is > 100 µM (inactive); in assay [8], > 100 µM (inactive); in assay [9] it was 70.5 µM (inactive); in assay [10] it was > 100 µM (inactive); in [11] it was 86.3 µM (inactive); in assay [12], > 100 µM (inactive). In addition, the GI50 in assay [13] is > 100 µM (inactive); in [14] it was 25.1 µM (inactive); in [15], > 100 µM (inactive); in [16] it was 6.17 µM (inactive); in [17] it was 50.8 µM (inactive); in assay [18] it was 57.7 µM (inactive). The results for the GI50 in assay [19] and in assay [20] were < 0.01 µM (active) and > 100 µM (inactive), respectively.

With `Nc1nc(=O)c(/N=N/c2ccccc2)c(C(=O)O)[nH]1`, the GI50 in [1] is 71.6 µM (inactive); in assay [2], 84.5 µM (inactive); in assay [3], > 100 µM (inactive); in assay [4] it was > 100 µM (inactive); in assay [5], 23.3 µM (inactive); in assay [6], > 100 µM (inactive). Besides, the GI50 in [7] is > 100 µM (inactive); in assay [8], 46.3 µM (inactive); in [9] it was 52.7 µM (inactive); in assay [10], > 100 µM (inactive); in [11], > 100 µM (inactive); in assay [12], > 100 µM (inactive). Besides, the GI50 was 63.8 µM (inactive) in [13]; > 100 µM (inactive) in assay [14]; 72.3 µM (inactive) in assay [15]; 93.8 µM (inactive) in [16]; > 100 µM (inactive) in assay [17]; 96.6 µM (inactive) in [18]. Besides, the GI50 in assay [19] was 35.3 µM (inactive); in [20], > 100 µM (inactive).

Regarding `CC(OP(=O)(O)O)C(N)C(=O)O` (stereo not given), the GI50 in [1], in [2], in assay [3], in assay [4], in [5] and in assay [6] was > 100 µM (inactive) throughout. Moreover, the GI50 in [7], in assay [8], in [9], in assay [10], in assay [11] and in assay [12] was > 100 µM (inactive) in each case. Besides, the GI50 in assay [13], in [14], in assay [15], in [16], in assay [17] and in assay [18] was > 100 µM (inactive) each time. Further, the GI50 in assay [19] and in assay [20] was > 100 µM (inactive) each time.

Turning to `C[C@]12CCC(=O)[C@@H](CCC3=CC(=O)C=CC3=O)[C@@H]1CCC2=O`, the GI50 was 10 µM (inactive) in assay [1]; 18.8 µM (inactive) in assay [2]; 11 µM (inactive) in assay [3]; 13 µM (inactive) in assay [4]; 18.4 µM (inactive) in assay [5]; 14.2 µM (inactive) in [6]. Besides, the GI50 is 14.3 µM (inactive) in assay [7]; 5.21 µM (inactive) in [8]; 2.19 µM (inactive) in assay [9]; 38 µM (inactive) in assay [10]; 17.2 µM (inactive) in [11]; 41.5 µM (inactive) in assay [12]. For the same compound, the GI50 in [13] was 1.6 µM (inactive); in assay [14] it was 1.9 µM (inactive); in assay [15], 14.3 µM (inactive); in assay [16], 6.32 µM (inactive); in assay [17] it was 26.1 µM (inactive); in assay [18], 37.4 µM (inactive). Moreover, the GI50 is 0.0102 µM (active) in assay [19] and 16 µM (inactive) in [20].

For the compound `[N-]=[N+]=NC1C(O)C(CO)OC1n1ccc(N)nc1=O` (stereo not given), the GI50 in [1] is 118 µM (inactive); in [2], 219 µM (inactive); in [3], 161 µM (inactive); in [4], 160 µM (inactive); in [5], 429 µM (inactive); in assay [6], 403 µM (inactive). Besides, the GI50 in [7] was 187 µM (inactive); in assay [8], 2.3 µM (inactive); in [9], 37.6 µM (inactive); in assay [10], 200 µM (inactive); in assay [11] it was > 625 µM (inactive); in assay [12], 245 µM (inactive). Moreover, the GI50 in [13] was 223 µM (inactive); in assay [14], > 206 µM (inactive); in assay [15] it was 191 µM (inactive); in assay [16], > 625 µM (inactive); in assay [17], > 625 µM (inactive); in assay [18], 227 µM (inactive). Moreover, the GI50 in [19] was 28.5 µM (inactive); in assay [20], 175 µM (inactive).

In the case of `COC(=O)C1(Cc2ccccc2C)Cc2ccc(C)cc2C1=O` (stereo not given), the GI50 was 45.6 µM (inactive) in [1]; 33.2 µM (inactive) in assay [2]; 49.1 µM (inactive) in assay [3]; 19.5 µM (inactive) in assay [4]; 41.4 µM (inactive) in [5]; 21.6 µM (inactive) in [6]. The GI50 in assay [7] was 31.2 µM (inactive); in assay [8], 23.6 µM (inactive); in [9], 17.3 µM (inactive); in [10], 16.7 µM (inactive); in assay [11] it was 36.6 µM (inactive); in assay [12] it was 89.7 µM (inactive). For the same compound, the GI50 was 17 µM (inactive) in [13]; 28.6 µM (inactive) in assay [14]; 69.7 µM (inactive) in [15]; 16.9 µM (inactive) in assay [16]; 55.2 µM (inactive) in [17]; 21.6 µM (inactive) in [18]. The GI50 in [19] was 13.9 µM (inactive); in assay [20] it was 15.5 µM (inactive).

`Cn1c2ccccc2c2c3c(c4c5ccccc5n(C)c4c21)C(=O)NC3=O`: the GI50 in assay [1] was 3.89 µM (inactive); in assay [2], > 19.7 µM (inactive); in assay [3] it was > 42.4 µM (inactive); in assay [4] it was > 72.6 µM (inactive); in assay [5], 10.9 µM (inactive); in assay [6], > 36.7 µM (inactive). The GI50 in assay [7] is 3.96 µM (inactive); in assay [8], > 100 µM (inactive); in assay [9], 21.2 µM (inactive); in assay [10], > 45.3 µM (inactive); in assay [11], 5.3 µM (inactive); in [12] it was 72.8 µM (inactive). Besides, the GI50 was > 51.9 µM (inactive) in assay [13]; 0.0589 µM (active) in assay [14]; 97.5 µM (inactive) in assay [15]; 20.7 µM (inactive) in [16]; 5.35 µM (inactive) in [17]; > 37.9 µM (inactive) in assay [18]. In addition, the values for the GI50 in assay [19] and in [20] were < 0.01 µM (active) and 18.2 µM (inactive), respectively.

Regarding `C=CCN1C(=O)/C(=C/c2cccs2)N=C1SC/C=C/C`, the GI50 in [1] is 36.8 µM (inactive); in assay [2] it was 40.7 µM (inactive); in assay [3], 39.1 µM (inactive); in assay [4], 31.6 µM (inactive); in [5] it was 33.6 µM (inactive); in assay [6], 24.6 µM (inactive). For the same compound, the GI50 was 31.3 µM (inactive) in assay [7]; 14.7 µM (inactive) in assay [8]; 26.9 µM (inactive) in [9]; 39.1 µM (inactive) in assay [10]; 23.3 µM (inactive) in [11]; 65.6 µM (inactive) in assay [12]. The GI50 in assay [13] is 16.9 µM (inactive); in assay [14] it was 22.8 µM (inactive); in assay [15], 46.5 µM (inactive); in assay [16], 19.1 µM (inactive); in [17] it was 95.3 µM (inactive); in assay [18] it was 26.3 µM (inactive). For the same compound, the GI50 in [19] is 18.5 µM (inactive); in assay [20], 92 µM (inactive).

Regarding `COc1cccc2nc3c(C(=O)NCCN(C)C)cccc3cc12`, the GI50 in assay [1] is 1.16 µM (inactive); in [2], 0.473 µM (active); in assay [3] it was 2.57 µM (inactive); in [4], 1.13 µM (inactive); in assay [5] it was 2.38 µM (inactive); in assay [6] it was 1.21 µM (inactive). The GI50 was 2.3 µM (inactive) in assay [7]; 0.325 µM (active) in assay [8]; 1.26 µM (inactive) in [9]; 2.71 µM (inactive) in [10]; 1.67 µM (inactive) in [11]; 1.94 µM (inactive) in assay [12]. The GI50 in [13] is 1.21 µM (inactive); in assay [14], 3.94 µM (inactive); in [15] it was 3.24 µM (inactive); in [16] it was 1.41 µM (inactive); in assay [17], 1.43 µM (inactive); in [18], 1.16 µM (inactive). In addition, the GI50 in [19] was 0.42 µM (active); in assay [20], 2.57 µM (inactive).

Consider `C=C1C(=O)O[C@@H]2C[C@@H](C)[C@@H]3[C@@H](OC4OC(COC(C)=O)C(O)C(O)C4O)CC(=O)[C@@]3(C)C[C@H]12` (stereo not given in full), for which the GI50 in [1] was 0.396 µM (active); in assay [2] it was 8.67 µM (inactive); in [3], 1.34 µM (inactive); in assay [4], 0.703 µM (active); in assay [5], 1.87 µM (inactive); in assay [6], 0.902 µM (active). The GI50 in assay [7] is 11 µM (inactive); in assay [8] it was 1.94 µM (inactive); in [9] it was 0.127 µM (active); in assay [10], 0.855 µM (active); in assay [11], 3.31 µM (inactive); in [12], 3.54 µM (inactive). Besides, the GI50 was 1.39 µM (inactive) in assay [13]; 1.85 µM (inactive) in assay [14]; 9.77 µM (inactive) in [15]; 1.74 µM (inactive) in [16]; 19.1 µM (inactive) in assay [17]; 1.54 µM (inactive) in assay [18]. Besides, the GI50 in assay [19] is 1.6 µM (inactive); in [20] it was 1.68 µM (inactive).
